Source: PubChem BioAssay AID256 (DTP/NCI, 2004)
Values joined by “and” are separate entries in the source; they are usually repeats but may differ in a detail not shown here. Identical values can stand only once. Toxic doses and inconclusive results are not listed.

Test system: CD2F1 mice, L1210 leukemia ip, survival T/C
Test: NCI In Vivo Anticancer Drug Screen. Data for tumor model L1210 Leukemia (intraperitoneal) in CD2F1 (CDF1) mice
Details: higher = longer survival
Method in brief: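 In this screen, transplantable tumors were grown in mice given either the compound or its vehicle. Results were expressed as the treated measurement relative to the control measurement.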

[1] = endpoint: mean survival time, dose: 100.0 mg/kg/injection, schedule: Q04DX003 (ip), vehicle: saline with Tween-80
[2] = endpoint: mean survival time, dose: 200.0 mg/kg/injection, schedule: Q04DX003 (ip), vehicle: saline with Tween-80
[3] = endpoint: mean survival time, dose: 400.0 mg/kg/injection, schedule: Q04DX003 (ip), vehicle: saline with Tween-80

## CCOC(=O)CNC(=O)Sc1ccc(C(C)(C)C)cc1
endpoint: mean survival time, dose: 12.5 mg/kg/injection, schedule: Q01DX009 (ip), vehicle: Klucel (hydroxypropylcellulose) (HPC)
  T/C: 96 % of control and 105 % of control
endpoint: mean survival time, dose: 25.0 mg/kg/injection, schedule: Q01DX009 (ip), vehicle: Klucel (hydroxypropylcellulose) (HPC)
  T/C: 101 % of control and 105 % of control
endpoint: mean survival time, dose: 50.0 mg/kg/injection, schedule: Q01DX009 (ip), vehicle: Klucel (hydroxypropylcellulose) (HPC)
  T/C: 101 % of control and 102 % of control
endpoint: mean survival time, dose: 100.0 mg/kg/injection, schedule: Q01DX009 (ip), vehicle: Klucel (hydroxypropylcellulose) (HPC)
  T/C: 100 % of control and 105 % of control
endpoint: mean survival time, dose: 200.0 mg/kg/injection, schedule: Q01DX009 (ip), vehicle: Klucel (hydroxypropylcellulose) (HPC)
  T/C: 100 % of control and 103 % of control
endpoint: mean survival time, dose: 400.0 mg/kg/injection, schedule: Q01DX009 (ip), vehicle: Klucel (hydroxypropylcellulose) (HPC)
  T/C: 97 % of control

## COC1(OC)CCC(OC)(OC)C(OC)(OC)C1(OC)OC
[1]
  T/C: 96 % of control
[2]
  T/C: 94 % of control
[3]
  T/C: 102 % of control

## CC1=CC2c3cccc4[nH]cc(c34)CC2N(C)C1 (centres undefined)
endpoint: median survival time, dose: 1.25 mg/kg/injection, schedule: Q01DX009 (ip), vehicle: suspension in saline
  T/C: 101 % of control
endpoint: median survival time, dose: 2.5 mg/kg/injection, schedule: Q01DX009 (ip), vehicle: suspension in saline
  T/C: 101 % of control
endpoint: median survival time, dose: 5.0 mg/kg/injection, schedule: Q01DX009 (ip), vehicle: suspension in saline
  T/C: 101 % of control
endpoint: median survival time, dose: 10.0 mg/kg/injection, schedule: Q01DX009 (ip), vehicle: suspension in saline
  T/C: 101 % of control
endpoint: median survival time, dose: 20.0 mg/kg/injection, schedule: Q01DX009 (ip), vehicle: suspension in saline
  T/C: 98 % of control

## CNC/C(C)=C/Cl
endpoint: mean survival time, dose: 50.0 mg/kg/injection, schedule: Q01DX009 (ip), vehicle: acetone
  T/C: 96 % of control
endpoint: mean survival time, dose: 100.0 mg/kg/injection, schedule: Q01DX009 (ip), vehicle: acetone
  T/C: 90 % of control

## CN(C)CCCC#N
endpoint: mean survival time, dose: 50.0 mg/kg/injection, schedule: Q01DX009 (ip), vehicle: saline with Tween-80
  T/C: 96 % of control
endpoint: mean survival time, dose: 100.0 mg/kg/injection, schedule: Q01DX009 (ip), vehicle: saline with Tween-80
  T/C: 102 % of control

## Cc1ccc(C)c(N=Nc2ccc(O)cc2)c1
[1]
  T/C: 104 % of control
[2]
  T/C: 100 % of control
[3]
  T/C: 105 % of control

## N=C(N)c1ccc(Nc2ccc(-c3cc4ccc(C(=N)N)cc4[nH]3)cc2)cc1
endpoint: median survival time, dose: 3.75 mg/kg/injection, schedule: Q01DX005 (ip), vehicle: saline
  T/C: 326 % of control
endpoint: median survival time, dose: 4.5 mg/kg/injection, schedule: Q01DX005 (ip), vehicle: saline
  T/C: 168 % of control
endpoint: median survival time, dose: 7.5 mg/kg/injection, schedule: Q01DX005 (ip), vehicle: saline
  T/C: 182 % of control and 271 % of control
endpoint: median survival time, dose: 12.49 mg/kg/injection, schedule: Q01DX005 (ip), vehicle: saline
  T/C: 150 % of control
endpoint: median survival time, dose: 20.83 mg/kg/injection, schedule: Q01DX005 (ip), vehicle: saline
  T/C: 101 % of control

## CCC(C)CNCCO (centres undefined)
endpoint: mean survival time, dose: 100.0 mg/kg/injection, schedule: Q04DX003 (ip), vehicle: saline
  T/C: 100 % of control
endpoint: mean survival time, dose: 200.0 mg/kg/injection, schedule: Q04DX003 (ip), vehicle: saline
  T/C: 95 % of control

## CCOC12CC3C4=CCOC5CC(=O)N6c7ccccc7C1(CCN2C4)C6C53 (centres undefined)
endpoint: mean survival time, dose: 5.0 mg/kg/injection, schedule: Q01DX001 (ip), vehicle: saline
  T/C: 98 % of control
endpoint: mean survival time, dose: 10.0 mg/kg/injection, schedule: Q01DX001 (ip), vehicle: saline
  T/C: 101 % of control
endpoint: mean survival time, dose: 20.0 mg/kg/injection, schedule: Q01DX001 (ip), vehicle: saline
  T/C: 95 % of control
endpoint: mean survival time, dose: 40.0 mg/kg/injection, schedule: Q01DX001 (ip), vehicle: saline
  T/C: 97 % of control

## CCCCNC(C)(C)C(SS)c1ccc(C(F)(F)F)cc1 (centres undefined)
endpoint: mean survival time, dose: 100.0 mg/kg/injection, schedule: Q04DX003 (ip), vehicle: other
  T/C: 94 % of control
endpoint: mean survival time, dose: 400.0 mg/kg/injection, schedule: Q04DX003 (ip), vehicle: other
  T/C: 86 % of control

## FC(F)(F)c1ccc2c(c1)N(CCCN1CCN(CCC3OCCCO3)CC1)c1ccccc1S2
endpoint: mean survival time, dose: 0.78 mg/kg/injection, schedule: Q01DX009 (ip), vehicle: saline
  T/C: 96 % of control
endpoint: mean survival time, dose: 1.56 mg/kg/injection, schedule: Q01DX009 (ip), vehicle: saline
  T/C: 96 % of control
endpoint: mean survival time, dose: 3.12 mg/kg/injection, schedule: Q01DX009 (ip), vehicle: saline
  T/C: 94 % of control
endpoint: mean survival time, dose: 6.25 mg/kg/injection, schedule: Q01DX009 (ip), vehicle: saline
  T/C: 96 % of control
endpoint: mean survival time, dose: 12.5 mg/kg/injection, schedule: Q01DX009 (ip), vehicle: saline
  T/C: 103 % of control

## Oc1ccc(Br)cc1/C=N/c1nc(-c2ccccc2)cs1.Oc1ccc(Br)cc1/C=N/c1nc(-c2ccccc2)cs1.[Co]
endpoint: mean survival time, dose: 100.0 mg/kg/injection, schedule: Q01DX001 (ip), vehicle: saline
  T/C: 100 % of control
endpoint: mean survival time, dose: 200.0 mg/kg/injection, schedule: Q01DX001 (ip), vehicle: saline
  T/C: 89 % of control

## O=C1NC2(CCCC2)C(=O)N2CCCC12 (centres undefined)
endpoint: mean survival time, dose: 50.0 mg/kg/injection, schedule: Q04DX003 (ip), vehicle: Klucel (hydroxypropylcellulose) (HPC)
  T/C: 93 % of control
endpoint: mean survival time, dose: 100.0 mg/kg/injection, schedule: Q04DX003 (ip), vehicle: Klucel (hydroxypropylcellulose) (HPC)
  T/C: 93 % of control
endpoint: mean survival time, dose: 200.0 mg/kg/injection, schedule: Q04DX003 (ip), vehicle: Klucel (hydroxypropylcellulose) (HPC)
  T/C: 97 % of control
